In patent publication US20200038416A1, “METHODS OF TREATING CARDIAC CONDUCTION DEFECTS USING AMINOSTEROL COMPOSITIONS” (Enterin, Inc., priority 2018, published 2020):
Entries after “also recorded” stand apart in the source; their conditions may differ.

Assays:
[1] = Prior clinical trials of intravenous squalamine; format: in vivo, human; conditions: prior studies
Method: Systemic absorption of the aminosterol following oral administration was negligible both in this study and in prior studies involving mice, rats and dogs. […] The topical action would also explain why adverse events were largely confined to the gastrointestinal tract.
In the current clinical trial, squalamine (ENT-01) was administered orally to subjects with PD who have long standing constipation. Although this trial was the first in man oral dosing study of ENT-01, humans have long been exposed to low doses of squalamine (milligram to microgram) in the various commercial dogfish shark liver extracts available as nutraceuticals (e.g., Squalamax).

[2] = Oral bioavailability / systemic absorption estimate versus prior IV pharmacokinetic data; format: in vivo, human; conditions: this study, PD patients
Method: PK data were collected on the 10 patients enrolled in Stage 1 and 10 patients enrolled in Stage 2 to determine the extent of systemic absorption. In Stage 1, PK data were obtained at each visit, pre-medication, at 1, 2, 4, 8 and 24 hours (Table 10). In Stage 2, PK was measured on days 1 and 6 of the randomization period pre-medication, at 1, 2, 4 and 8 hours (Table 11).

[3] = mice, systemic administration; into the duodenum through the biliary tract; cited from earlier work
[4] = tested on: mice with constipation due to overexpression of human αS; conditions: mouse models of PD, oral administration; cited from earlier work
[5] = tested on: IPANs (intrinsic primary afferent neuron); conditions: perfusion through lumen of isolated bowel segment; cited from earlier work
[6] = prior studies; cited from earlier work

CC(C)[C@@H](CC[C@@H](C)[C@H]1CC[C@H]2[C@@H]3[C@H](O)C[C@H]4C[C@@H](NCCCNCCCCN)CC[C@]4(C)[C@H]3CC[C@]12C)OS(=O)(=O)O [squalamine]
systemic blood levels after intravenous versus oral administration [1]: one thousand-fold greater
systemic absorption following oral administration [2]: negligible; also recorded: not significantly absorbed
clearance and excretion [3]: cleared by the liver and excreted as the intact molecule
gastrointestinal motility [4]: stimulates gastro-intestinal motility; also recorded: reverse gastrointestinal dysmotility
effect on IPANs of the ENS [5]: excitation of IPANs
effect of intravenous administration on gastrointestinal motility [6]: not associated with increased gastrointestinal motility
